Values joined by “and” are separate entries in the source; they are usually repeats but may differ in a detail not shown here. Equal entries are not always repeated. Structures can show the parent of a compound that is named as a salt. Active and inactive are the calls of the source.
Columns and labels:
H4 = assay: Luminescence Cell-Based Dose Response HTS to Identify Activators of 5'UTR Stem-Loop Driven Prion Protein mRNA Translation in H4 Neuroglioblastoma Cells. [Related pubchem assays: 1829 (Project Summary), 1814 (Primary HTS)]; format: functional; settings: Homo sapiens
[1] = Luminescence Cell-Based Dose Response HTS to Identify Activators of Luciferase Translation or Activity in H4 […] Cells. [Related pubchem assays: 1829 (Project Summary), 1814 (Primary HTS)]; format: functional
[2] = Luminescence Cell-Based Dose Confirmation HTS to Identify Activators of 5'UTR Stem-Loop Driven Alpha-Synuclein mRNA Translation in H4 Neuroglioblastoma Cells. [Related pubchem assays: 1829 (Project Summary), 1814 (Primary HTS)]; format: functional
[3] = molecular target: T1, Heat shock factor protein 1 (Mus musculus, UniProt P38532); assay: HSF1 potentiators in luciferase reporter cells, confirmation, cell-based, NIH3T3, luminescence, dose retest (AID 435004); format: functional;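 also: stress induced by proteasome inhibitor MG132 added 30 min after compound; luciferase reporter driven by HSF1 response element in NIH3T3 cells; actives raise luminescence as potentiators of the MG132 stress response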
T1 sequence (P38532 whole entry): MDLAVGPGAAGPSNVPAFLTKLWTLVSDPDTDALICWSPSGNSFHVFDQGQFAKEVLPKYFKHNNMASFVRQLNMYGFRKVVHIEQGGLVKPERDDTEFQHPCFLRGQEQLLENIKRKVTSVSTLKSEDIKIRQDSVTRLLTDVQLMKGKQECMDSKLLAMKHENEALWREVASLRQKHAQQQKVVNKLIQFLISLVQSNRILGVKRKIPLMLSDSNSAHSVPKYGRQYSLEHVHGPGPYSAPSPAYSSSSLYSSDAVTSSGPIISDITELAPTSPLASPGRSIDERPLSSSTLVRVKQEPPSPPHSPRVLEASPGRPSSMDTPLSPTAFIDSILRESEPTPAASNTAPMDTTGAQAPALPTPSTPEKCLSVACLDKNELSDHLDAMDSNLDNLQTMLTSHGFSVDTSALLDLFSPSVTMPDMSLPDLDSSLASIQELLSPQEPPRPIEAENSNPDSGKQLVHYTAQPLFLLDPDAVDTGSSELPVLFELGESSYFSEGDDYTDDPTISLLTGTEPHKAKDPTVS

[4] = Luminescence Cell-Based Dose Response HTS to Identify Inhibitors of 5'UTR Stem-Loop Driven Prion Protein mRNA Translation in H4 Neuroglioblastoma Cells. [Related pubchem assays: 1827 (Project Summary), 1813 (Primary HTS)]; format: functional
[5] = inhibitors of firefly luciferase expression or activity, dose response, H4 neuroglioma cells, luminescence (AID 1990); format: functional, cell-based
[6] = inhibitors of SNCA 5'UTR-driven reporter translation, confirmation, H4 neuroglioma cells, luminescence (AID 1988); format: functional, cell-based
Cytochrome P450 2C19 = Cytochrome P450 2C19 (Homo sapiens, UniProt P33261); assay: Cytochrome panel assay with activity outcomes. Panel member name: p450-cyp2c19 Compounds with AC50 equal or less than 10 uM are considered active; format: functional
Chain of Cytochrome P450 2C19 (P33261 whole entry): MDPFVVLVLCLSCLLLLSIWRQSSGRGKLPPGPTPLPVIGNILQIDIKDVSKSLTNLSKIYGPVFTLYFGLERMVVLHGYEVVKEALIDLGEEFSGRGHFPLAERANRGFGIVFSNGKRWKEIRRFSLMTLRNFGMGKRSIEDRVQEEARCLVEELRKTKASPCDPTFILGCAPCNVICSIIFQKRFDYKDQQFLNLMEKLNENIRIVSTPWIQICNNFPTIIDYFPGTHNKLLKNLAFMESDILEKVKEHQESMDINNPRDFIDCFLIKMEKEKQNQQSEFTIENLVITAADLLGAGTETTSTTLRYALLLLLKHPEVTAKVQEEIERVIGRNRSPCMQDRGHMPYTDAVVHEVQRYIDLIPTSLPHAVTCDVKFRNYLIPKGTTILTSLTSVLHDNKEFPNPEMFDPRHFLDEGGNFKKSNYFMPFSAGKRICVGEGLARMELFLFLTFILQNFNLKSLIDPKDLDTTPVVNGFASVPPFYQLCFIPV

Cytochrome P450 2C9 = Cytochrome P450 2C9 (Homo sapiens, UniProt P11712)
Chain of Cytochrome P450 2C9 (P11712 whole entry): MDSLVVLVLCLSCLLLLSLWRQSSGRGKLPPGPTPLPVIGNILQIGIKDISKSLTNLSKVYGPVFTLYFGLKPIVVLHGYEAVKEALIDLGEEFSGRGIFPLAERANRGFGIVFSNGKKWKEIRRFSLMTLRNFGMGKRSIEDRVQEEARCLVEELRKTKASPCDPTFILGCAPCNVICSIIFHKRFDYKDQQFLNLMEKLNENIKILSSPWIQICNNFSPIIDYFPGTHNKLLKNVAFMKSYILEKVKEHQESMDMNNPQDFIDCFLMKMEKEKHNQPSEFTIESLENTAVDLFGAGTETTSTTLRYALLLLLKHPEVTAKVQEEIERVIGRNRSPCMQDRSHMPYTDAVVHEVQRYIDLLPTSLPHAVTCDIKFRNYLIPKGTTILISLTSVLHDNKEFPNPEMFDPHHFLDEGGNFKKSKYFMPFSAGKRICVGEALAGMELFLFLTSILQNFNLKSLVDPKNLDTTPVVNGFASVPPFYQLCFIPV

Cytochrome P450 3A4 = Cytochrome P450 3A4 (Homo sapiens, UniProt P08684);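 also: CYP3A4 tested as one member of a cytochrome P450 panel screen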
Chain of Cytochrome P450 3A4 (P08684 whole entry): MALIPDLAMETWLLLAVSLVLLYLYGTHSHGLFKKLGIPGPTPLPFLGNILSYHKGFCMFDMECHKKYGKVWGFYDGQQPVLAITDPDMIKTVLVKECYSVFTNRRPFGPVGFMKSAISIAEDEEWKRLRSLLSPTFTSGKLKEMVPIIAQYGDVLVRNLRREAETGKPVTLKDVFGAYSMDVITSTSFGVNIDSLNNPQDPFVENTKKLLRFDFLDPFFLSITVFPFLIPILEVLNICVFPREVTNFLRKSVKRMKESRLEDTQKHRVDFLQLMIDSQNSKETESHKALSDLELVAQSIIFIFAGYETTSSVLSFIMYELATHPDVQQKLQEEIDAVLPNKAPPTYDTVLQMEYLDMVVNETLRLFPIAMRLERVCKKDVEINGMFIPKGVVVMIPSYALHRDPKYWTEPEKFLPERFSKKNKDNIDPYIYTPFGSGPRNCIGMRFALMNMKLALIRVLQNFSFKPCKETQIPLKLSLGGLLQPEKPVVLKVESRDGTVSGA

[7] = Shn3 3'UTR reporter inhibitors, dose response, cell-based, Clone20 osteoblasts, firefly luciferase, cherry-picked (AID 624132); format: functional;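 also: firefly luciferase luminescence from reporter carrying the Shn3 3'UTR in osteoblasts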
Streptokinase A = molecular target: T2, Streptokinase A (Streptococcus pyogenes serotype M1, UniProt P10520); assay: S. pyogenes streptokinase expression inhibitors, potency, dose response, plasminogen activation absorbance, OD405 (AID 1914); format: functional, Streptococcus pyogenes M1 GAS;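 also: secreted streptokinase activity via plasminogen activation per viability signal from cell pellet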
T2 sequence (P10520 whole entry): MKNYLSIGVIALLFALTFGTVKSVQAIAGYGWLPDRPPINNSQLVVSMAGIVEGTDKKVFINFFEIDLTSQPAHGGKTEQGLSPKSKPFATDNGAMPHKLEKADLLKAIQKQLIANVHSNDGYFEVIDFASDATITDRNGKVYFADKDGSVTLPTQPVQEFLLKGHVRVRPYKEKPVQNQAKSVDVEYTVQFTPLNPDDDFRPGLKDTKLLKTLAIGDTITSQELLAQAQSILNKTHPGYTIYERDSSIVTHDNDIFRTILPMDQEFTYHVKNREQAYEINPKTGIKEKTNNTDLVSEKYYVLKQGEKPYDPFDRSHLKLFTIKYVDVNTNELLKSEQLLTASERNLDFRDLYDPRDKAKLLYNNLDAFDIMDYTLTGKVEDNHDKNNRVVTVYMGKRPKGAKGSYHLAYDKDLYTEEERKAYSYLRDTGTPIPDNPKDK

Streptococcus = assay: Group A Streptococcus viability loss, dose response, counter-screen for streptokinase expression inhibitor project, luminescence, BacTiterGlo (AID 1915); format: functional, organism-based;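 also: potency for reduction of bacterial viability or growth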
[8] = tested on: Streptococcus sp. 'group A'; assay: growth inhibition of control SK(-) GAS strain, dose response, counter-screen for streptokinase expression inhibitor project, luminescence, kanamycin, BacTiterGlo, confirmation (AID 1900); format: functional, organism-based
Paired box protein Pax-8 = Paired box protein Pax-8 (Homo sapiens, UniProt Q06710); assay: inhibitors of PAX8-driven TPO luciferase reporter, dose response, RMG-I cells, cherry-pick (AID 687027); format: functional, cell-based;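 also: luciferase reporter driven by Pax8 target thyroperoxidase promoter measured by SteadyGlo luminescence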
Chain of Paired box protein Pax-8 (Q06710 whole entry): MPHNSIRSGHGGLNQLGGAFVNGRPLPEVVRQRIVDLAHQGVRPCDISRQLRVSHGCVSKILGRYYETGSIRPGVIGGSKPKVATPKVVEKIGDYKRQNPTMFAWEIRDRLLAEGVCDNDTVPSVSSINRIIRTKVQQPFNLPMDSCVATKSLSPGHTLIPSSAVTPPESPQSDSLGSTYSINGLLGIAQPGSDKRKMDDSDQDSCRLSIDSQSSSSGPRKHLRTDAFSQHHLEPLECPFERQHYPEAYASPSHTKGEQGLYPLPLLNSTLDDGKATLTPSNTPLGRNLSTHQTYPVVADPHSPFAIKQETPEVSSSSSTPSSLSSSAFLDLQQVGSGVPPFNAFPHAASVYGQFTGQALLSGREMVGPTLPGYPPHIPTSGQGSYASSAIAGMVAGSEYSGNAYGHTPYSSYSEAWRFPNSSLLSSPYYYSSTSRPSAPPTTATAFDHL

Cytochrome P450 2D6 = Cytochrome P450 2D6 (Homo sapiens, UniProt P10635);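 also: CYP2D6 member of a cytochrome P450 panel assay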
Chain of Cytochrome P450 2D6 (P10635 whole entry): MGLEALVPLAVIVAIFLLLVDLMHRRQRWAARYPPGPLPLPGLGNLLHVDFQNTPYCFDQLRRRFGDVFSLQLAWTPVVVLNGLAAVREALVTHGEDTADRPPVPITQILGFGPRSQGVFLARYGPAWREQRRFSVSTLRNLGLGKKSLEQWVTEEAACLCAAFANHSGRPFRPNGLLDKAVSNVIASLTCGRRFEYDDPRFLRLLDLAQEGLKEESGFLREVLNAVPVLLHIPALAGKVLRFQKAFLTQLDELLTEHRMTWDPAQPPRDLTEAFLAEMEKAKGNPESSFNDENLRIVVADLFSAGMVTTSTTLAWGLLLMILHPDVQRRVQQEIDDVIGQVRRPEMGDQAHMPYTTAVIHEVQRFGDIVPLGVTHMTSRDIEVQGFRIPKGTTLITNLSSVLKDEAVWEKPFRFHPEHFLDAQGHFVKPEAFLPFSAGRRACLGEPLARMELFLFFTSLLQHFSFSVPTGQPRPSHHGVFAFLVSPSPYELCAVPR

Cytochrome P450 1A2 = molecular target: T3, Cytochrome P450 1A2 (Homo sapiens, UniProt P05177);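 also: PubChem cytochrome P450 panel assay, CYP1A2 panel member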
T3 sequence (P05177 whole entry): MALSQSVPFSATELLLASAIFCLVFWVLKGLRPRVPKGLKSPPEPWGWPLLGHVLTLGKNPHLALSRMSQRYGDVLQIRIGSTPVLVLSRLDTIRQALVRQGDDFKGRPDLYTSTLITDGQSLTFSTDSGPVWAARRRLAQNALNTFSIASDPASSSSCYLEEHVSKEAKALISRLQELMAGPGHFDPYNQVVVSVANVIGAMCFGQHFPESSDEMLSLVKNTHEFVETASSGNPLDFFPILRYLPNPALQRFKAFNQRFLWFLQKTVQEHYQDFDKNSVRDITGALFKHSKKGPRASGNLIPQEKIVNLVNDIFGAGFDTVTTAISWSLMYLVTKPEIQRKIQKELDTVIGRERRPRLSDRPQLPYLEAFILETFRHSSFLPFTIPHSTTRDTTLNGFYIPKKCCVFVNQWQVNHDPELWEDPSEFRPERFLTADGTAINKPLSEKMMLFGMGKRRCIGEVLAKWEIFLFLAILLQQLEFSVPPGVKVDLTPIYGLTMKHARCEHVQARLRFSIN

CCSc1nnc(-c2c[nH]c3ccccc23)o1
EC50 (H4): 24.7 µM (inconclusive)
EC50 [1]: 21.1 µM (active)
EC50 [2]: 63.9 µM (active)

Brc1ccc2c(c1)C(c1cccnc1)=NNC(c1cccs1)=N2
EC50 [3]: 93.6 µM (active)

CCc1ccc(NC(=O)c2[nH]c(C)c(C(C)=O)c2C)cc1
EC50 [1]: 2.6 µM (active)
EC50 [2]: 1.62 µM (active)

Cc1ccc(C)c(Nc2c([N+](=O)[O-])ccc3nonc23)c1
EC50 [4]: > 120 µM (not active)
EC50 [5]: 19.9 µM (active)
EC50 [6]: 53.7 µM (active)

COCCCn1c(SCC(=O)Nc2ccc(C(C)=O)cc2)nc2ccccc2c1=O
EC50 (H4): 68.6 µM (active)
EC50 [1]: 22.8 µM (active)
EC50 [2]: 13.9 µM (active)

Cc1nc2cncnc2n(Cc2ccc(F)cc2)c1=O
AC50 (Cytochrome P450 2C19; read-out: AC50): 39.8 µM (inconclusive)
AC50 (Cytochrome P450 2C9): 25.1 µM (inconclusive)
AC50 (Cytochrome P450 3A4): 15.8 µM (inconclusive)

COC(=O)C1=C(C)n2nnnc2NC1c1ccc(Cl)cc1 (stereo not given)
EC50 [4]: > 120 µM (not active)
EC50 [5]: 20.6 µM (active)
EC50 [6]: > 120 µM (not active)

O=C(NCCc1cccs1)C1CC(c2ccc([N+](=O)[O-])cc2)=NO1 (stereo not given)
EC50 (H4): 16.2 µM (active)
EC50 [1]: 50.8 µM (active)
EC50 [2]: 118 µM (active)

COC(=O)c1ccc(NS(=O)(=O)NC(=O)c2cn(C)c3ccccc23)cc1
EC50 (H4): > 120 µM (not active)
EC50 [1]: > 120 µM (not active)
EC50 [2]: > 120 µM (not active)

COc1cc(NC(=O)c2cc3c(Cl)nc4ccccc4c3s2)cc(OC)c1OC
AC50 [7]: 24.4 µM (active)

COc1cc(C(=O)Nc2ccc(S(=O)(=O)N3CCc4ccccc43)cc2)cc(OC)c1OC
EC50 [3]: > 260 µM (inactive)

Nc1c(Cl)cc(C2=NCCn3c2c2ccc([N+](=O)[O-])cc2[n+]3[O-])cc1Cl
EC50 (Streptokinase A): > 150 µM (not active)
EC50 (Streptococcus): 5.67 µM (active)
EC50 [4]: > 120 µM (not active)
EC50 [8]: 2 µM (active)
EC50 [5]: 14.7 µM (active)
EC50 [6]: 8.15 µM (active)

O=C(NCC1CCCO1)C1CCC(=O)N1CCc1ccccc1 (stereo not given)
AC50 (Cytochrome P450 2C19; read-out: AC50): 7.08 µM (inconclusive)

Cc1ccc(NC(=NOCc2ccc(Cl)cc2Cl)c2nonc2N)c(C)c1
EC50 [3]: > 260 µM (inactive)

FC(F)(F)c1c[nH]c2c(-c3ccccc3)nnc-2c1
EC50 (H4): 13.9 µM (active)
EC50 [1]: 19.3 µM (active)
EC50 [2]: 1.29 µM (active)

CC(=O)OC(C)(C)/C=C/C(=O)[C@](C)(O)C1[C@H](O)C[C@@]2(C)C3CC=C4C(C=C(O[C@@H]5O[C@H](CO)[C@@H](O)[C@H](O)[C@H]5O)C(=O)C4(C)C)[C@]3(C)C(=O)C[C@]12C (stereo not given in full)
AC50 (Paired box protein Pax-8): 7.14 µM (active)

OCCN1CCN(c2nc(N3CCCCC3)nc(N3CCCCC3)n2)CC1
AC50 (Cytochrome P450 2C19; read-out: AC50): 39.8 µM (inconclusive)
AC50 (Cytochrome P450 2C9): 15.8 µM (inconclusive)
AC50 (Cytochrome P450 3A4): 14.1 µM (inconclusive)

Cn1c2ccc(F)cc2c2ncn(CCN3CCOCC3)c(=O)c21
EC50 [3]: > 260 µM (inactive)

Cc1nn(-c2cc(C)c3ccccc3n2)c2c1CCC2
EC50 (H4): 80.3 µM (active)
EC50 [1]: 18.8 µM (active)
EC50 [2]: 4.27 µM (active)

CN(C)S(=O)(=O)c1ccc(Cl)c(NC(=O)CN2CCCCCC2)c1
EC50 [4]: > 120 µM (not active)
EC50 [5]: > 120 µM (not active)
EC50 [6]: > 120 µM (not active)

COc1ccc(C(=O)C[n+]2ccccc2C=NO)cc1
EC50 (H4): 32 µM (active)
EC50 [1]: 12.1 µM (active)
EC50 [2]: 12.5 µM (active)

Nc1ccc(Sc2cc(Cl)nc(N)n2)cc1
EC50 [4]: > 120 µM (not active)
EC50 [5]: > 120 µM (not active)
EC50 [6]: 99.5 µM (active)

C[C@@H]1OC=C2[C@@H](O)[C@H]3O[C@H]3C(=O)[C@]23[C@@H]2O[C@H](C)C(C4=C2[C@@H](O)[C@H]2O[C@@H]2C4=O)[C@@H]13
AC50 (Cytochrome P450 2C19): inconclusive

Cc1cc(-c2nnc3n2N=C(c2ccc(F)cc2)CS3)[nH]n1
EC50 (H4): > 120 µM (not active)
EC50 [1]: > 120 µM (not active)
EC50 [2]: > 120 µM (not active)

Cc1[nH]c2ccccc2c1C(=O)COc1ccccc1
EC50 (H4): 13.2 µM (active)
EC50 [1]: 16.4 µM (active)
EC50 [2]: 18.7 µM (active)

C=CC[C@@H](CC(=O)N[C@H](CO)Cc1ccccc1)C(=O)N[C@H](COC(=O)[C@@H](CC=C)Cc1ccc(F)cc1)Cc1c[nH]c2ccccc12
AC50 (Paired box protein Pax-8): 8.96 µM (active)

COc1nccc(-c2c(-c3ccc(F)cc3)ncn2C2CCC(O)CC2)n1 (stereo not given)
AC50 (Cytochrome P450 2C19; read-out: AC50): 7.94 µM (inconclusive)
AC50 (Cytochrome P450 2C9): 7.94 µM (inconclusive)
AC50 (Cytochrome P450 2D6): 12.6 µM (inconclusive)
AC50 (Cytochrome P450 1A2): 31.6 µM (inconclusive)

COc1ccc(/C=N/NC(=O)c2ccco2)cc1Cn1nc(C)c([N+](=O)[O-])c1C
EC50 [4]: > 120 µM (not active)
EC50 [5]: > 120 µM (not active)
EC50 [6]: > 120 µM (not active)

Cc1ccc(S(=O)(=O)N/N=C/c2cccn2-c2ccc(Cl)cc2)cc1
AC50 (Cytochrome P450 2C19; read-out: AC50): 0.0501 µM (inconclusive)
AC50 (Cytochrome P450 2C9): 12.6 µM (inconclusive)
AC50 (Cytochrome P450 1A2): 12.6 µM (inconclusive)

N[C@H](C(=O)O)c1cc(O)cc(O)c1
AC50 (Cytochrome P450 2C19; read-out: AC50): 15.8 µM (inconclusive) and 10 µM (inconclusive)
AC50 (Cytochrome P450 1A2): 31.6 µM (inconclusive)

CC(C)NCC(O)COc1cccc2ccccc12 (stereo not given) [PROPRANOLOL HYDROCHLORIDE]
AC50 [7]: 23.6 µM (active)

Reference: ChEMBL document CHEMBL1201862, “PubChem BioAssay data set” (2004)
